Key:
Assay in all cases: kinome screen (33PanQinase)
Format in all cases: biochemical
EIF2AK3 = target: T1, EIF2AK3 (Homo sapiens, UniProt Q9NZJ5)
T1 construct: purchased Reaction Biology Europe GmbH (formerly ProQinase)
T1 sequence (Q9NZJ5 30-1116): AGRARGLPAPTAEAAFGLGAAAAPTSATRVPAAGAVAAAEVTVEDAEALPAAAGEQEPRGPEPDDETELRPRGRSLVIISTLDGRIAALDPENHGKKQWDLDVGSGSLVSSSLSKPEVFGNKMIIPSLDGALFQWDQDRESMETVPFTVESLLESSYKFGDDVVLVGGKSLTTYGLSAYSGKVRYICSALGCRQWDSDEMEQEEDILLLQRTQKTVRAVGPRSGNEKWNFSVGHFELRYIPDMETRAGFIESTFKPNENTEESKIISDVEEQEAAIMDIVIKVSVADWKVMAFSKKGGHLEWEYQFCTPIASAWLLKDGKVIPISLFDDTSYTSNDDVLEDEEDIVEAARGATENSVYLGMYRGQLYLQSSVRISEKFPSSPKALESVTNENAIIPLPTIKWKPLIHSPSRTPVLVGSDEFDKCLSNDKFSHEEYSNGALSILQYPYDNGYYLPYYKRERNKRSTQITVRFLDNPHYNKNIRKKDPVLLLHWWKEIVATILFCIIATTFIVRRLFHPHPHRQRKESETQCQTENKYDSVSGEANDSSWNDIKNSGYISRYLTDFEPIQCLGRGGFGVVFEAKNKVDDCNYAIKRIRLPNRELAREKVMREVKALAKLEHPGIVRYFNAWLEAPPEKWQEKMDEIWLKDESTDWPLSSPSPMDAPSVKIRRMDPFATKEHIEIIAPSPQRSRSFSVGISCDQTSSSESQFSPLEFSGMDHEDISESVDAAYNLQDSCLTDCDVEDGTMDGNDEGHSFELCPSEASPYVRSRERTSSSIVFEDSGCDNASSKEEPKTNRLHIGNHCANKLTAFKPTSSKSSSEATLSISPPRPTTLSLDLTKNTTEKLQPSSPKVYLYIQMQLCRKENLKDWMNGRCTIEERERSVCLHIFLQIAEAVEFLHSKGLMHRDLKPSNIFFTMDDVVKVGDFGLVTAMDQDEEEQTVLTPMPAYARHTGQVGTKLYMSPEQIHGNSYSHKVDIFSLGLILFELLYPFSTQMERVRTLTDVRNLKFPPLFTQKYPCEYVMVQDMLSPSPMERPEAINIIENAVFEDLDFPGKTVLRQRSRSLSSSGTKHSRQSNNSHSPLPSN
Protocol: (§1) The Kinome Screening was performed by Reaction Biology Europe GmbH (http://reactionbiology.com; Freiburg i. Br., Germany).

FAK = target: T2, FAK (Homo sapiens, UniProt Q05397)
T2 construct: purchased Reaction Biology Europe GmbH (formerly ProQinase)
Protocol: as §1

NEK9 = target: T3, NEK9 (Homo sapiens, UniProt Q8TD19)
T3 construct: purchased Reaction Biology Europe GmbH (formerly ProQinase)
T3 sequence (Q8TD19 1-979): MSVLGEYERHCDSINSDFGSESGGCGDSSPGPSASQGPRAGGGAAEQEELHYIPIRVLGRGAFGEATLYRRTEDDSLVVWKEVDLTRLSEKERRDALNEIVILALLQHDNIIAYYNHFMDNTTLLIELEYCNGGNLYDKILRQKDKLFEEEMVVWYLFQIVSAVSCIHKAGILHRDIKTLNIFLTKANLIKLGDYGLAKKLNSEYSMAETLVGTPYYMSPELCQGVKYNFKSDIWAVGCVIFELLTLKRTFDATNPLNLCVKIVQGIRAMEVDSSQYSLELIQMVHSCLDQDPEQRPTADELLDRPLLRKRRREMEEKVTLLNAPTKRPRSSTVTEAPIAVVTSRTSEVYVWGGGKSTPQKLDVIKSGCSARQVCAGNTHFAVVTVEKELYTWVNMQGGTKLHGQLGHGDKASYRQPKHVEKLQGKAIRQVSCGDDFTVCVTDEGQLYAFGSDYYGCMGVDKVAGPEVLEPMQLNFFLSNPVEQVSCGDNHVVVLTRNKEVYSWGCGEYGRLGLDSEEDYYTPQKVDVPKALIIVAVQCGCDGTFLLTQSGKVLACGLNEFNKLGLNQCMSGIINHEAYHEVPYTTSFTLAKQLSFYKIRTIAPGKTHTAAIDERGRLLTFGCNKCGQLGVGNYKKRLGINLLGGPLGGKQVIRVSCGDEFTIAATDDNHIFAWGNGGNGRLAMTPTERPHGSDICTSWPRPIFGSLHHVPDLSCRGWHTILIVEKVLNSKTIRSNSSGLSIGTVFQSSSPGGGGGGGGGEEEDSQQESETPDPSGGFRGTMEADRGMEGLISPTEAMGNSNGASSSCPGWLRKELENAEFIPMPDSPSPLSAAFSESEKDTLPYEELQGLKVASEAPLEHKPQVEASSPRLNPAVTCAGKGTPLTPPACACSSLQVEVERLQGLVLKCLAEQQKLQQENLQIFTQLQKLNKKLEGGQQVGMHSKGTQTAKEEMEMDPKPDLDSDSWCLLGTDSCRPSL
Protocol: as §1

PAK1 = target: T4, PAK1 (Homo sapiens, UniProt Q13153)
T4 construct: purchased Reaction Biology Europe GmbH (formerly ProQinase)
Protocol: as §1

ROCK1 = target: T5, ROCK1 (Homo sapiens, UniProt Q13464)
T5 construct: purchased Reaction Biology Europe GmbH (formerly ProQinase)
Protocol: as §1

RPS6KA2 = target: T6, RPS6KA2 (Homo sapiens, UniProt Q15349)
T6 construct: purchased Reaction Biology Europe GmbH (formerly ProQinase)
Protocol: as §1

SLK = target: T7, SLK (Homo sapiens, UniProt Q9H2G2)
T7 construct: purchased Reaction Biology Europe GmbH (formerly ProQinase)
Protocol: as §1

VEGFR2 = target: T8, VEGFR2 (Homo sapiens, UniProt P35968)
T8 construct: purchased Reaction Biology Europe GmbH (formerly ProQinase)
Protocol: as §1

p38Δ = target: T9, p38Δ (Homo sapiens, UniProt O15264)
T9 construct: purchased Reaction Biology Europe GmbH (formerly ProQinase)
T9 sequence (O15264 1-365): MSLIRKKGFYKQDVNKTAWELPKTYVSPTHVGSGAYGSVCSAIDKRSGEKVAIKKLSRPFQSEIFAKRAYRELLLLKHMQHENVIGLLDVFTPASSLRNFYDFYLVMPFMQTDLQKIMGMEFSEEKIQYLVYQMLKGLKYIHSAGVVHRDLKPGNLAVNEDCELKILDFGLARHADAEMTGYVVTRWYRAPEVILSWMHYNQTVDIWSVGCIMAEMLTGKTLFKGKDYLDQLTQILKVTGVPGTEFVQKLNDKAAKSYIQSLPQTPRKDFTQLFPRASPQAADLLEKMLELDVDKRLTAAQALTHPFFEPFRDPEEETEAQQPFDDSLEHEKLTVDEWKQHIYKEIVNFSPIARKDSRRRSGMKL
Protocol: as §1

T2 sequence (Q05397 whole entry): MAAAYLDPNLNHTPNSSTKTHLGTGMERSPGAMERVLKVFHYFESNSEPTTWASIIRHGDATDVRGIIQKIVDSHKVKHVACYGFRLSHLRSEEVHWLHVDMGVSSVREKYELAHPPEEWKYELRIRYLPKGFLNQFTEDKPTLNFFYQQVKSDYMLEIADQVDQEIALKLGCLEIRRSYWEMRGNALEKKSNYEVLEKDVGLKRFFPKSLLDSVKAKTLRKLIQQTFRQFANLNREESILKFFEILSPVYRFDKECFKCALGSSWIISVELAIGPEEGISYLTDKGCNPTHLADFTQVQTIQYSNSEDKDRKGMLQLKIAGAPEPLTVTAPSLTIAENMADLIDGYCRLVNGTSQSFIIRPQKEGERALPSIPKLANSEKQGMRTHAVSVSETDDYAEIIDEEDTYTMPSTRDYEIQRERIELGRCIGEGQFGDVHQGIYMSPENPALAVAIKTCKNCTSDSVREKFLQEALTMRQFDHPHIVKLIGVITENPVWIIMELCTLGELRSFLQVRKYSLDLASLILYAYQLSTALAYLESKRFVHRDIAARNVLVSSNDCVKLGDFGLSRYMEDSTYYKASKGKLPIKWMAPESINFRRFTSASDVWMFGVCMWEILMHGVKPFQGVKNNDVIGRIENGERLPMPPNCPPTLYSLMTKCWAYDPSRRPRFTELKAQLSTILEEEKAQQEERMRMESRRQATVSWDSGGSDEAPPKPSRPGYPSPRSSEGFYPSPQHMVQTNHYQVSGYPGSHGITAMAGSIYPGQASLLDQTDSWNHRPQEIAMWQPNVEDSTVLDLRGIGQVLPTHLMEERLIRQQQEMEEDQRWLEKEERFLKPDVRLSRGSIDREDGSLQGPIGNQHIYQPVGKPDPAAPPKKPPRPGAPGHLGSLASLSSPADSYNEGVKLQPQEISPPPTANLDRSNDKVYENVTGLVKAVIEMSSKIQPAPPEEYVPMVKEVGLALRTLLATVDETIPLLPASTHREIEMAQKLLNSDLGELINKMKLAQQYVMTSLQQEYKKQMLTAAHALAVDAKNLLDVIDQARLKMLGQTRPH
T5 sequence (Q13464 whole entry): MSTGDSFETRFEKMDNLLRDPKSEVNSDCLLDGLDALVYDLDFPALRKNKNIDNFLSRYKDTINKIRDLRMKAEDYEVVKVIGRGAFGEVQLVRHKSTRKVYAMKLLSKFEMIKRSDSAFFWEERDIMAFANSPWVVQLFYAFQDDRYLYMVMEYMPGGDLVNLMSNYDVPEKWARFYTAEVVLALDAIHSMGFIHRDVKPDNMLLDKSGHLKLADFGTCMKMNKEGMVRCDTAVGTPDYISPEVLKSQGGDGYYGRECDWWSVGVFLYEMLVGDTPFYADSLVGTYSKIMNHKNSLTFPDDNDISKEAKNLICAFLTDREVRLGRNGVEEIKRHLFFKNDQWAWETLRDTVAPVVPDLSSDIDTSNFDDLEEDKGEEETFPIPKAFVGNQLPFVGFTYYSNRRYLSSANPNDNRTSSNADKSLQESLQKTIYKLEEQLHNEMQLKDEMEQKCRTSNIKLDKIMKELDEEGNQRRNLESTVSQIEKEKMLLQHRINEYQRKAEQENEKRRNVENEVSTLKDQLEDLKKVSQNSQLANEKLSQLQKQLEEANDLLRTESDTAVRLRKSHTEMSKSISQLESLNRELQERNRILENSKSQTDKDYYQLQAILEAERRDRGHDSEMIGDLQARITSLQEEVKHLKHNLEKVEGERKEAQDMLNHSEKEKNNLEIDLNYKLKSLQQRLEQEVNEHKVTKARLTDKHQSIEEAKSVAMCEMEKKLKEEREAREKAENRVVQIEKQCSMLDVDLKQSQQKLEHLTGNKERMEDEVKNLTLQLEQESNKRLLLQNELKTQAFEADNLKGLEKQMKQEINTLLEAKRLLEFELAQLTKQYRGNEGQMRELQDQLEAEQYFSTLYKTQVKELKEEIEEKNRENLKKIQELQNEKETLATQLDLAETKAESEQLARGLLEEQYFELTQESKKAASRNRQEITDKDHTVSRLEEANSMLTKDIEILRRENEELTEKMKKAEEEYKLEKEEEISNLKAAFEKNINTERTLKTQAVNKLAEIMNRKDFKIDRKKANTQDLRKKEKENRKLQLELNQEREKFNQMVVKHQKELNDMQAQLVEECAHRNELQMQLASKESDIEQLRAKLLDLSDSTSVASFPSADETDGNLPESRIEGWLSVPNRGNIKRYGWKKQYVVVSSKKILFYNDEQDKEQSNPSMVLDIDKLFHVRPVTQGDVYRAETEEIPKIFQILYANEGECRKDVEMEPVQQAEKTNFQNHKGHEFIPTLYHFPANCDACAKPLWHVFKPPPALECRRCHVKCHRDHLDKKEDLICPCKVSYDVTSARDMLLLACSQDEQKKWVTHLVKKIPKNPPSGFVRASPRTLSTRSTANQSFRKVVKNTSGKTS
T4 sequence (Q13153 whole entry): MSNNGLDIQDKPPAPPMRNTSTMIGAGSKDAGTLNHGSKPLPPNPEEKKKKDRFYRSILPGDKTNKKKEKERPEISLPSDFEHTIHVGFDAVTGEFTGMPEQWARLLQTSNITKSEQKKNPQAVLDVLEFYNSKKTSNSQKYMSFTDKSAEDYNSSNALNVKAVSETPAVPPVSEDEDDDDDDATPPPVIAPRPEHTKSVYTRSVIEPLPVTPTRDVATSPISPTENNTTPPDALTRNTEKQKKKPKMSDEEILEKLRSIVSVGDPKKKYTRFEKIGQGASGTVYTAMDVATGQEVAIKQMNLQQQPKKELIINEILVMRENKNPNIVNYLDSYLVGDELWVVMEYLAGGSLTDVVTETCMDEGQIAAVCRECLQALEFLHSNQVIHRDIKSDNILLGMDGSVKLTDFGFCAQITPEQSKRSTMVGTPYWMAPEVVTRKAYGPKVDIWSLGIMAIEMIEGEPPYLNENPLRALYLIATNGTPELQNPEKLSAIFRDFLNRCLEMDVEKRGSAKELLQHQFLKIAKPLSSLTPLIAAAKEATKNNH
T8 sequence (P35968 20-1356): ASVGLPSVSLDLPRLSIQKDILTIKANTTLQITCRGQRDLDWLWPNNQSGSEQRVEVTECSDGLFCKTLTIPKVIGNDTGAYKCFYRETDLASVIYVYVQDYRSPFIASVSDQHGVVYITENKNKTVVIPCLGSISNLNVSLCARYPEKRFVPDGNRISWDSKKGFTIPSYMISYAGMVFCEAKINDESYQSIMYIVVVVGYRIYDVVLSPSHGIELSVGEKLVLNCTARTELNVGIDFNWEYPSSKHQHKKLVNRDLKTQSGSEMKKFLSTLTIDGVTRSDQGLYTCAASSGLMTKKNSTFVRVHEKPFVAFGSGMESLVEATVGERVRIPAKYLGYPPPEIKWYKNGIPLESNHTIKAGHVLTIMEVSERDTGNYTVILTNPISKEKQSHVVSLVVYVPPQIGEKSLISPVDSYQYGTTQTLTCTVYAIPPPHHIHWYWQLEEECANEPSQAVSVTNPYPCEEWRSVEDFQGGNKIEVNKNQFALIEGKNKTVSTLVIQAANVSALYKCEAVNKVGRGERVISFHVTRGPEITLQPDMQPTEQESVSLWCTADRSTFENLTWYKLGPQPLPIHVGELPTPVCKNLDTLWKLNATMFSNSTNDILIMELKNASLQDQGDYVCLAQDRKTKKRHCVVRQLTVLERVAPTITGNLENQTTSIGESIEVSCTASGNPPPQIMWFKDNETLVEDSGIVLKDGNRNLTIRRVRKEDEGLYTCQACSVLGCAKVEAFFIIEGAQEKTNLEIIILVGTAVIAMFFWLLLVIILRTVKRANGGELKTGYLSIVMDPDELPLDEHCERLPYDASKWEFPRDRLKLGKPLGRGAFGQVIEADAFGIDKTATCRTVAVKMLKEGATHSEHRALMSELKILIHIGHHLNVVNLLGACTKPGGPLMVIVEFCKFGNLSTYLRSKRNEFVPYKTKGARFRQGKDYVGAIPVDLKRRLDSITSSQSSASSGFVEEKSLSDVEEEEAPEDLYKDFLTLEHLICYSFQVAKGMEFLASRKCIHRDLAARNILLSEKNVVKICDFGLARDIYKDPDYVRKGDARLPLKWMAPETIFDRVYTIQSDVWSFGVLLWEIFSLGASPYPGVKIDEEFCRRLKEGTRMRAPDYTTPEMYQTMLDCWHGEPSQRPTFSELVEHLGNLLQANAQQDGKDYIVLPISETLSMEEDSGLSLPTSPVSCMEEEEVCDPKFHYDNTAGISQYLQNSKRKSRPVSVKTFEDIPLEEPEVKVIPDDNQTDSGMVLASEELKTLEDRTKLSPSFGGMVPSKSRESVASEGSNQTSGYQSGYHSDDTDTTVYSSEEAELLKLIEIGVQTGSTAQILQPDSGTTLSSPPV
T6 sequence (Q15349 whole entry): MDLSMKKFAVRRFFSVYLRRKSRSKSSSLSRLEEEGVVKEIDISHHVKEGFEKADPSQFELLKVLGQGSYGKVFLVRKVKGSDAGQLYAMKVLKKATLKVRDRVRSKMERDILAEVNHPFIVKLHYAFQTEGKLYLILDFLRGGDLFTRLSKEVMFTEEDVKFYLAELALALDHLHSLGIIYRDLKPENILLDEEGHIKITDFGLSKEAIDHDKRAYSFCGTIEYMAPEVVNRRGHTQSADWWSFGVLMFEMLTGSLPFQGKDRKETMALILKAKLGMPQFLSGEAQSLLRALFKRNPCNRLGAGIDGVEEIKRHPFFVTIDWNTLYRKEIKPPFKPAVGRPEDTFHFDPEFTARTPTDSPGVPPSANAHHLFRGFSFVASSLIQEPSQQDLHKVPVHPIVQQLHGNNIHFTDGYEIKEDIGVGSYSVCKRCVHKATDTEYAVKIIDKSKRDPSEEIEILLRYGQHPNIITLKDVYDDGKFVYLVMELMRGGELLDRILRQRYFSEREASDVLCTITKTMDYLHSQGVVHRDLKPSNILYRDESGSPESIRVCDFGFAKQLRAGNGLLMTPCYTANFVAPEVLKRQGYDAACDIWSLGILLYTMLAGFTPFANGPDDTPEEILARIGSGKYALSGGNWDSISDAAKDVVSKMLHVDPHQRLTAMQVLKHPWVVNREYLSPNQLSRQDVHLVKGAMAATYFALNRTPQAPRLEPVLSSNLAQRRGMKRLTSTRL

Compound	residual kinase activity (EIF2AK3; 0.3 µM)	residual kinase activity (FAK; 0.3 µM)	residual kinase activity (NEK9; 0.3 µM)	residual kinase activity (PAK1; 0.3 µM)	residual kinase activity (ROCK1; 0.3 µM)	residual kinase activity (RPS6KA2; 0.3 µM)	residual kinase activity (SLK; 0.3 µM)	residual kinase activity (VEGFR2; 0.3 µM)	residual kinase activity (p38Δ; 0.3 µM)	also measured
COc1ccnc2[nH]cc(-c3cc(N)nc(N)c3)c12 [meriolin 16]	90 % of control	89 % of control	87 % of control	98 % of control	2 % of control	34 % of control	77 % of control	98 % of control	24 % of control	residual kinase activity (EIF2AK3; 0.03 µM): 87 % of control; residual kinase activity (FAK; 0.03 µM): 102 % of control; residual kinase activity (NEK9; 0.03 µM): 89 % of control; residual kinase activity (PAK1; 0.03 µM): 106 % of control; residual kinase activity (ROCK1; 0.03 µM): 24 % of control; residual kinase activity (RPS6KA2; 0.03 µM): 87 % of control; residual kinase activity (SLK; 0.03 µM): 83 % of control; residual kinase activity (VEGFR2; 0.03 µM): 102 % of control; residual kinase activity (p38Δ; 0.03 µM): 79 % of control
c1ccc(CNc2cc(-c3c[nH]c4ncccc34)ccn2)cc1 [meriolin 36]	81 % of control	85 % of control	88 % of control	85 % of control	1 % of control	6 % of control	4 % of control	60 % of control	59 % of control	residual kinase activity (EIF2AK3; 3 µM): 74 % of control; residual kinase activity (FAK; 3 µM): 60 % of control; residual kinase activity (NEK9; 3 µM): 67 % of control; residual kinase activity (PAK1; 3 µM): 76 % of control; residual kinase activity (ROCK1; 3 µM): 1 % of control; residual kinase activity (RPS6KA2; 3 µM): 0 % of control; residual kinase activity (SLK; 3 µM): 1 % of control; residual kinase activity (VEGFR2; 3 µM): 19 % of control; residual kinase activity (p38Δ; 3 µM): 14 % of control
